Data as given in the supplement of paper PMC10307832.

Each cell line was assayed with O=C(/C=C/c1ccccc1)NC(NC(=S)Nc1cccc2cccnc12)C(Cl)(Cl)Cl [Salubrinal] + COc1cccc2cc(-c3nc([C@H]4CC[C@H](C(=O)O)CC4)n4ncnc(N)c34)[nH]c12 [OSI-027] (partner 0.5 µM) (assay: relative viability (nuclei count vs DMSO), 5 days (fraction); higher = more cells survive). Conditions: first compound 0.08 µM.
Method in brief: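 The day after seeding in 1536-well plates, lung cancer cell lines were treated by pin tool with a single drug, or with a fixed anchor-drug dose together with five library-drug doses (not always all listed) in √10 steps. After 5 days, a combined fix-and-stain solution (final 0.05% Triton X-100, 1% formaldehyde, 1 ug/ml Hoechst) was added. Nuclei counted on 4× images gave relative viability as treated counts over vehicle counts, reported as the median of duplicate plates.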

Row | Cell Line | relative viability
1 | NCI-H522 | 0.74
2 | NCI-H2342 | 0.653
3 | NCI-H727 | 0.505
4 | NCI-H1650 | 0.929
5 | NCI-H1993 | 0.58
6 | SW 1573 | 0.763
7 | NCI-H838 | 0.327
8 | LCLC-103H | 0.494
9 | NCI-H520 | 0.334
10 | NCI-H2126 | 0.7
11 | EMC-BAC-2 | 0.364
12 | NCI-H2085 | 0.793
13 | HCC-366 | 1.04
14 | NCI-H1666 | 0.953
15 | NCI-H596 | 0.657
16 | LK-2 | 0.185
17 | NCI-H2087 | 0.517
18 | NCI-H358 | 0.83
19 | NCI-H2170 | 0.71
20 | H3255 | 0.689
21 | ChaGo-K-1 | 0.731
22 | NCI-H1793 | 0.308
23 | SW 900 | 0.545
24 | NCI-H441 | 0.603
25 | NCI-H1395 | 0.705
26 | NCI-H1623 | 0.482
27 | NCI-H1648 | 0.23

Same assay, conditions: first compound 0.253 µM

Row | Cell Line | relative viability
28 | NCI-H522 | 0.661
29 | NCI-H2342 | 0.523
30 | NCI-H727 | 0.621
31 | NCI-H1650 | 0.525
32 | NCI-H1993 | 0.564
33 | SW 1573 | 0.622
34 | NCI-H838 | 0.402
35 | LCLC-103H | 0.393
36 | NCI-H520 | 0.22
37 | NCI-H2126 | 0.721
38 | EMC-BAC-2 | 0.359
39 | NCI-H2085 | 0.629
40 | HCC-366 | 1.13
41 | NCI-H1666 | 0.763
42 | NCI-H596 | 0.721
43 | LK-2 | 0.194
44 | NCI-H2087 | 0.481
45 | NCI-H358 | 0.74
46 | NCI-H2170 | 0.702
47 | H3255 | 0.553
48 | ChaGo-K-1 | 0.479
49 | NCI-H1793 | 0.331
50 | NCI-H441 | 0.59
51 | NCI-H1395 | 0.675
52 | NCI-H1623 | 0.387
53 | NCI-H1648 | 0.268

Same assay, conditions: first compound 0.8 µM

Row | Cell Line | relative viability
54 | NCI-H522 | 0.734
55 | NCI-H2342 | 0.608
56 | NCI-H727 | 0.562
57 | NCI-H1650 | 0.718
58 | NCI-H1993 | 0.509
59 | SW 1573 | 0.589
60 | NCI-H838 | 0.372
61 | LCLC-103H | 0.5
62 | NCI-H520 | 0.265
63 | NCI-H2126 | 0.725
64 | EMC-BAC-2 | 0.41
65 | NCI-H2085 | 0.848
66 | HCC-366 | 0.91
67 | NCI-H1666 | 0.894
68 | NCI-H596 | 0.793
69 | LK-2 | 0.258
70 | NCI-H2087 | 0.626
71 | NCI-H358 | 0.848
72 | NCI-H2170 | 0.783
73 | H3255 | 0.748
74 | ChaGo-K-1 | 0.581
75 | NCI-H1793 | 0.307
76 | SW 900 | 0.737
77 | NCI-H441 | 0.678
78 | NCI-H1395 | 0.682
79 | NCI-H1623 | 0.544
80 | NCI-H1648 | 0.257

Same assay, conditions: first compound 2.53 µM

Row | Cell Line | relative viability
81 | NCI-H522 | 0.791
82 | NCI-H2342 | 0.639
83 | NCI-H727 | 0.618
84 | NCI-H1650 | 0.583
85 | NCI-H1993 | 0.495
86 | SW 1573 | 0.565
87 | NCI-H838 | 0.4
88 | LCLC-103H | 0.49
89 | NCI-H520 | 0.307
90 | NCI-H2126 | 0.695
91 | EMC-BAC-2 | 0.384
92 | NCI-H2085 | 0.712
93 | HCC-366 | 0.844
94 | NCI-H1666 | 0.806
95 | NCI-H596 | 0.716
96 | LK-2 | 0.212
97 | NCI-H2087 | 0.515
98 | NCI-H358 | 0.582
99 | NCI-H2170 | 0.687
100 | H3255 | 0.603
101 | ChaGo-K-1 | 0.612
102 | NCI-H1793 | 0.23
103 | SW 900 | 0.576
104 | NCI-H441 | 0.573
105 | NCI-H1395 | 0.605
106 | NCI-H1623 | 0.386
107 | NCI-H1648 | 0.269

Same assay, conditions: first compound 8 µM

Row | Cell Line | relative viability
108 | NCI-H522 | 0.571
109 | NCI-H2342 | 0.561
110 | NCI-H727 | 0.575
111 | NCI-H1650 | 0.607
112 | NCI-H1993 | 0.584
113 | SW 1573 | 0.493
114 | NCI-H838 | 0.407
115 | LCLC-103H | 0.398
116 | NCI-H520 | 0.337
117 | NCI-H2126 | 0.659
118 | EMC-BAC-2 | 0.427
119 | NCI-H2085 | 0.717
120 | HCC-366 | 0.549
121 | NCI-H1666 | 0.848
122 | NCI-H596 | 0.646
123 | LK-2 | 0.214
124 | NCI-H2087 | 0.563
125 | NCI-H358 | 0.672
126 | NCI-H2170 | 0.47
127 | H3255 | 0.603
128 | ChaGo-K-1 | 0.435
